In one test the target is mushroom tyrosinase. In words: Tyrosinase inhibition assay. It counts as biochemical. The settings on record: for IC50: Table 3, isolated compounds. As to the method: Tyrosinase inhibitory activity was measured by using the method described by Yagi et al.. The reaction was carried out in 0.1 M potassium phosphate buffer (pH 6.5) containing 1.5 mM L-tyrosine and 1250 units/mL mushroom tyrosinase. The reaction mixture was incubated at 37°C for 20 min. The test samples were assayed for tyrosinase inhibition by measuring its effect on tyrosinase activity using SpectraMax 190PC microplate ELISA reader at 490 nm.

A short description of test [1]: ABTS radical scavenging activity. Here is the method: ABTS radical scavenging activity was measured by using a previously described method. ABTS+ was formed by mixing 7 mM ABTS solution and 2.45 mM potassium persulfate (K2S2O8) solution with ABTS: K2S2O8 (2 : 1 ratio) for 12–16 h to form a cation (ABTS^+). The absorbance was measured at 734 nm using an ELISA reader. BHA, an antioxidant, was used as the positive control.

A short description of test [2]: DPPH radical scavenging activity assay. The settings on record: for IC50: Table 3, isolated compounds; for DPPH radical scavenging activity (in words): Figure 4. Here is the method: DPPH radical scavenging activity was measured by using the method described by Blois and Ozgen et al.. DPPH solution dissolved in methanol was added to the sample, which was diluted to the required concentration, and the reaction was carried out at room temperature for 30 min. Absorbance was measured at 517 nm using an ELISA reader. The antioxidant butylated hydroxyanisole (BHA) was used as a positive control, and the IC50 value of the sample was determined.
A general note: The DPPH test is a chemical assay of radical scavenging.

Test [3] relates to RAW 264.7 cells. Put plainly: Cell cytotoxicity assay (MTT). It counts as cell-based, murine. The note with it: Mus musculus, RAW264.7. As to the method:
RAW 264.7 cells were plated at a density of 5 × 10^4 cells/well in 96-well plates. Cells were treated with samples for 1 h prior to LPS (1 μg/mL) stimulation for 24 h. MTT (5 mg/mL in PBS) was added to each well and incubated for 2 hr. The medium was removed from the wells by aspiration, DMSO was added to each well, and the plate was shaken. The absorbance of each well was measured at a wavelength of 540 nm using an ELISA reader. Data are presented as the mean ± standard deviation of three replicates.

The next test concerns the target elastase (Sus scrofa, UniProt P00772). Put plainly: Elastase inhibition assay. It counts as biochemical. As to the method: The reaction was carried out in 0.5 mM Tris buffer (pH 8.5) containing 1 mg/mL N-succinyl-(Ala)3-p-nitroanilide and 0.6 unit/mL elastase. The reaction mixture was incubated at 25°C for 10 min. The test samples were assayed for elastase inhibition by measuring its effect on elastase activity using an ELISA reader at 405 nm. Ursolic acid was used as a positive control, and the IC50 value of the sample was determined.

Test [4] relates to RAW 264.7 cells. In words: NO assay (nitrite by Griess reagent in LPS-stimulated cells). It counts as cell-based, murine. Here is the method: RAW 264.7 cells were seeded in 96-well plates (5 × 10^4 cells/well) and were treated with sample for 1 h prior to LPS (1 μg/mL) stimulation for 24 h. The negative control was treated with serum-free media. The amount of nitrite, a stable metabolite of NO, was measured by using Griess reagent (1% sulfanilamide and 0.1% naphthylethylenediamine dihydrochloride in 2.5% phosphoric acid). Absorbance was subsequently measured at 540 nm using an ELISA reader. The quantity of nitrite was determined from a standard curve for sodium nitrite.

[5] abbreviates: Table 3, isolated compounds, read-out: MTT assay IC50.
Where [6] appears, read: Table 3, isolated compounds, read-out: Elastase inhibition assay IC50.
Where [7] appears, read: Mus musculus, RAW264.7, Table 3, isolated compounds, read-out: NO assay IC50.

This is an account of results in publication PMC7769672, “Skin-Related Properties and Constituents from the Aerial Parts Extract of Persicaria senticosa” (Oxidative Medicine and Cellular Longevity, 2020).

Each structure is given as a SMILES string. “And” between values parts separate entries of the source, which are not always exact repeats. Identical values can stand only once. Like-named read-outs stand apart in the source and are kept apart here. Where only a bound is given, the exact number is not on record here.

Chain of elastase (P00772 27-266): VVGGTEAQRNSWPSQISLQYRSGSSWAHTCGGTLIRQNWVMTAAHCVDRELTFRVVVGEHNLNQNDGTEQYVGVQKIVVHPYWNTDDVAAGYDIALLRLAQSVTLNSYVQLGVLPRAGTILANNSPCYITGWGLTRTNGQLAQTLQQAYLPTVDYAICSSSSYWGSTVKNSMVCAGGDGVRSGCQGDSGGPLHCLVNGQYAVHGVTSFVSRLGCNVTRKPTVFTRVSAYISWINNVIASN

Take `OC[C@H]1O[C@@H](Oc2ccc(O)cc2)[C@H](O)[C@@H](O)[C@@H]1O` [Arbutin, reference compound]: at mushroom tyrosinase (Table 1, methanol extracts, L-tyrosine substrate), the “Whitening Tyrosinase assay (IC50)” value was “Arbutin 135.0 ± 19.9 μg/mL”.
Take `COc1ccc(O)c(C(C)(C)C)c1` [BHA, butylated hydroxyanisole, reference compound]: the “Antioxidant ABTS (IC50)” value in test [1] (Table 1, methanol extracts, 734 nm) is recorded as “BHA 2.9 ± 0.1 μg/mL”. In test [1] (Table 2, fractions), the “Antioxidant ABTS” value is given as “BHA 4.03 ± 0.05 μg/mL”. In addition, the “Antioxidant DPPH (IC50)” value in test [2] (Table 1, methanol extracts, 30 min, 517 nm) is “BHA 15.6 ± 0.2 μg/mL”. Also, the “Antioxidant DPPH” value in test [2] (Table 2, fractions) is listed as “BHA 14.58 ± 0.06 μg/mL”. The IC50 in test [2] was 272 µM.
`CC1(C)C[C@H](O)C[C@@]2(C)OC(=O)C=C12` [Compound 1, loliolide]: the IC50 with RAW 264.7 cells [3] (setting [5]) is greater than 100 µM; on elastase (setting [6]), greater than 1000 µM; with RAW 264.7 cells [4] (setting [7]), greater than 100 µM; on mushroom tyrosinase it was greater than 100 µM; in test [2] it was greater than 1000 µM.
For the compound `O=c1c(O[C@@H]2O[C@H](CO)[C@@H](O)[C@H](O)[C@H]2O)c(-c2ccc(O)c(O)c2)oc2cc(O)cc(O)c12` [Compound 2, quercetin-3-O-glucoside], the IC50 in the test on RAW 264.7 cells [3] (setting [5]) is greater than 100 µM; on elastase (setting [6]) it was greater than 1000 µM; with RAW 264.7 cells [4] (setting [7]) it was greater than 100 µM; against mushroom tyrosinase, greater than 100 µM; in test [2], 39.6 µM and 39.4 µM; in test [2] (listed as Comp. 2) it was 39.6 ± 4.1 µM. The “DPPH radical scavenging activity (in words)” value in test [2] was “excellent antioxidant activity”.
`O=C(O)C1OC(Oc2c(-c3ccc(O)c(O)c3)oc3cc(O)cc(O)c3c2=O)C(O)C(O)C1O` (stereo not drawn) [Compound 3, quercetin-3-O-glucuronide]: the IC50 in the test on RAW 264.7 cells [3] (setting [5]) was greater than 100 µM; at elastase (setting [6]), greater than 1000 µM; with RAW 264.7 cells [4] (setting [7]), greater than 100 µM; against mushroom tyrosinase, greater than 100 µM; in test [2], 31.2 µM; in test [2] (listed as Comp. 3), 31.2 ± 0.47 µM.
For the compound `COc1ccc(/C=C/C(=O)OC(C(=O)O)C(O)C(=O)O)cc1O` (stereo not drawn) [Compound 4, 4-methoxy caftraric acid], the IC50 in the test on RAW 264.7 cells [3] (setting [5]) is 84.6 ± 9.85 µM; on elastase (setting [6]), greater than 1000 µM; in the test on RAW 264.7 cells [4] (setting [7]), greater than 100 µM; against mushroom tyrosinase it was greater than 100 µM; in test [2], greater than 1000 µM.
On to `COC(=O)C1OC(Oc2c(-c3ccc(O)cc3)oc3cc(O)cc(O)c3c2=O)C(O)C(O)C1O` (stereo not drawn) [Compound 5, kaempferol-3-(6-methylglucuronide)], for which the IC50 with RAW 264.7 cells [3] (setting [5]) was greater than 100 µM; on elastase (setting [6]), greater than 1000 µM; in the test on RAW 264.7 cells [4] (setting [7]), greater than 100 µM; on mushroom tyrosinase it was greater than 100 µM; in test [2], 37 µM; in test [2] (listed as Comp. 5) it was 36.99 ± 0.16 µM. Further, the “DPPH radical scavenging activity (in words)” value in test [2] is reported as “excellent antioxidant activity”.
With `COC(=O)C1OC(Oc2c(-c3ccc(O)c(O)c3)oc3cc(O)cc(O)c3c2=O)C(O)C(O)C1O` (stereo not drawn) [Compound 6, quercetin-3-(6-methylglucuronide)], the IC50 with RAW 264.7 cells [3] (setting [5]) is greater than 100 µM; at elastase (setting [6]), greater than 1000 µM; in the test on RAW 264.7 cells [4] (setting [7]), greater than 100 µM; against mushroom tyrosinase it was greater than 100 µM; in test [2], greater than 1000 µM.
For the compound `O=c1c(O)c(-c2ccc(O)c(O)c2)oc2cc(O)cc(O)c12` [Compound 7, quercetin], the IC50 was greater than 100 µM with RAW 264.7 cells [3] (setting [5]); 29.7 µM in the test with RAW 264.7 cells [4] (setting [7]); 29.7 ± 7.07 µM in the test with RAW 264.7 cells [4] (Table 3, isolated compounds, listed as Comp. 7, read-out: NO assay IC50); 22.7 µM in test [2]; 22.7 ± 0.53 µM in test [2] (listed as Comp. 7).
Regarding `[H]/N=C(/NC)NCCC[C@H](N)C(=O)O` [L-NMMA, reference compound], the IC50 with RAW 264.7 cells [3] (Table 1 positive control, read-out: Anti-inflammatory MTT, positive control) was greater than 100 µM; in the test with RAW 264.7 cells [3] (setting [5]) it was greater than 100 µM; in the test with RAW 264.7 cells [4] (Mus musculus, RAW264.7, Table 2 positive control, read-out: Anti-inflammatory NO, positive control) it was 37.6 µM; in the test with RAW 264.7 cells [4] (Mus musculus, RAW264.7, Table 1 positive control, read-out: Anti-inflammatory NO (IC50), positive control) it was 36.3 µM; in the test on RAW 264.7 cells [4] (setting [7]), 14.6 µM.
Turning to `C[C@H]1[C@H](C)CC[C@]2(C(=O)O)CC[C@]3(C)C(=CC[C@@H]4[C@@]5(C)CC[C@H](O)C(C)(C)[C@@H]5CC[C@]43C)[C@H]12` [Ursolic acid, reference compound], the IC50 at elastase (Table 1, methanol extracts, read-out: Anti-wrinkle Elastase assay (IC50)) came to 116 µM; on elastase (Table 2, fractions, unit inferred, read-out: Antiwrinkle Elastase assay), 85.3 µM; at elastase (setting [6]) it was 86.3 µM.
